“And” between values parts separate entries of the source, which are not always exact repeats. Identical values can stand only once.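 96-well plates; 48 h exposure; 5 concentrations. Endpoints by linear interpolation between flanking doses. Not reached: highest tested concentration assigned. GI50 marks 50% less growth. Definition used: TGI = concentration required for complete inhibition of growth.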
Legend:
Assay in all cases: NCI tumour cell line growth inhibition, 48 h
NCI/ADR-RES ovarian = system: NCI/ADR-RES ovarian
HL-60(TB) leukemia = system: HL-60(TB) leukemia
OVCAR-4 ovarian = system: OVCAR-4 ovarian
RXF 393 renal = system: RXF 393 renal
LOX IMVI melanoma = system: LOX IMVI melanoma
OVCAR-5 ovarian = system: OVCAR-5 ovarian
UACC-257 melanoma = system: UACC-257 melanoma
EKVX NSCLC = system: EKVX NSCLC
A498 renal = system: A498 renal
UO-31 renal = system: UO-31 renal

| Structure (SMILES) | TGI (NCI/ADR-RES ovarian) | TGI (HL-60(TB) leukemia) | TGI (OVCAR-4 ovarian) | TGI (RXF 393 renal) | TGI (LOX IMVI melanoma) | TGI (OVCAR-5 ovarian) | TGI (UACC-257 melanoma) | TGI (EKVX NSCLC) | TGI (A498 renal) | TGI (UO-31 renal) | GI50 (NCI/ADR-RES ovarian) | GI50 (OVCAR-4 ovarian) | GI50 (RXF 393 renal) | GI50 (OVCAR-5 ovarian) | GI50 (A498 renal) | GI50 (HL-60(TB) leukemia) [µM] | GI50 (UACC-257 melanoma) | GI50 (EKVX NSCLC) |
| --- | --- | --- | --- | --- | --- | --- | --- | --- | --- | --- | --- | --- | --- | --- | --- | --- | --- | --- |
| C[C@@H](C[C@@H](O)[C@H](O)C(C)(C)O)[C@H]1CC=C2[C@]3(C)[C@H](O)C[C@H]4C(C)(C)[C@H](O)CC[C@]4(C)[C@H]3CC[C@@]21C | 28.1 µM | 40.5 µM | 27.5 µM | 35.7 µM | 30 µM | 33.4 µM | 32 µM | 26.1 µM | 28.5 µM | 28.7 µM |  |  |  |  |  |  |  |  |
| CN1C(=O)[C@@]2(C=CC3(CC2)OCCO3)c2ccccc21 | > 50 µM | > 50 µM | > 50 µM | > 50 µM | > 50 µM | > 50 µM | > 50 µM | > 50 µM | > 50 µM | > 50 µM |  |  |  |  |  |  |  |  |
| C=CCN1C(=O)/C(=C/c2ccc(Cl)cc2)N=C1SC1OC(COC(C)=O)C(OC(C)=O)C(OC(C)=O)C1OC(C)=O (stereo not given) | > 100 µM |  | 28.2 µM and 67.1 µM | 19.5 µM and 47.5 µM | > 100 µM and 89.8 µM | > 100 µM | 45.2 µM and 74.4 µM | > 100 µM | > 100 µM and 73.7 µM |  | 11.5 µM and 31.7 µM | 4.14 µM and 16.7 µM | 4.94 µM and 11.6 µM | > 66.9 µM and 32.7 µM | 80.5 µM and 31.1 µM |  |  |  |
| COC(=O)CNC(=O)/C=C/[C@H](O[Si](C)(C)C(C)(C)C)[C@H](/C=C/C(=O)NCC(=O)OC)O[Si](C)(C)C(C)(C)C | > 25 µM |  | > 25 µM | > 25 µM | > 25 µM | > 25 µM | > 25 µM | > 25 µM | > 25 µM | > 25 µM |  |  |  |  |  |  |  |  |
| Cc1ccc(S(=O)(=O)NC(=O)NS(=O)(=O)O)cc1 | > 100 µM | > 100 µM | > 100 µM | > 100 µM | > 100 µM | > 100 µM | > 100 µM |  |  | > 100 µM |  |  |  |  |  |  |  |  |
| CCCCC(=C=C1CCCCC1O)C1CCCN1C(=O)OC(C)(C)C (stereo not given) | 30.6 µM | 25.5 µM | 27.4 µM | 27.1 µM | 32.3 µM | 29.4 µM | 29.4 µM | 28.4 µM |  | 35.8 µM |  |  |  |  |  |  |  |  |
| COc1ccccc1OC/C(N=Cc1ccncc1)=N/NC(=O)c1ccncc1 | > 100 µM | > 100 µM | > 100 µM | > 100 µM | > 100 µM | > 100 µM | > 100 µM | > 100 µM | > 100 µM |  |  |  |  |  |  |  |  |  |
| COC(=O)c1cc2c3c(c(C(C)=O)c(OC)c2[nH]1)NCC3 | > 50 µM | > 50 µM |  | > 50 µM | > 50 µM | > 50 µM | > 50 µM | > 50 µM | > 50 µM | > 50 µM |  |  |  |  |  |  |  |  |
| COc1cccc(N2N=C3c4ccccc4-n4c(nc5ccccc54)C3C2N)c1 (stereo not given) | > 100 µM | > 100 µM | > 100 µM |  | > 100 µM | > 100 µM | > 100 µM | > 100 µM | > 100 µM | > 100 µM |  |  |  |  |  |  |  |  |
| C/C=C\C(CC(=O)O)CC(=O)NCCC1CN(S(=O)(=O)C(F)(F)F)c2ccccc21 (stereo not given) | > 100 µM |  | > 100 µM | > 100 µM | > 100 µM | > 100 µM | > 100 µM | > 100 µM | > 100 µM | > 100 µM |  |  |  |  |  |  |  |  |
| CN(C)CCNC(=O)c1cccc2c(NC(CS)C(=O)O)c3ccccc3nc12 (stereo not given) | > 100 µM | 9.72 µM | > 100 µM |  | 21.1 µM | 60.4 µM | > 100 µM | 39.3 µM |  | 11.8 µM |  |  |  |  |  |  |  |  |
| Cn1c(=O)c2[nH]c(N/N=C3/SCC(=O)N3Cc3ccccc3)nc2n(C)c1=O | > 100 µM | > 100 µM | > 100 µM | > 100 µM |  | > 100 µM | > 100 µM | > 100 µM | > 100 µM | > 100 µM |  |  |  |  |  |  |  |  |
| C=C(CCC(C(=O)O)C1CCC2(C)C3=C(CCC12C)C1(C)CCC(O)C(C)(C)C1CC3)C(C)C (stereo not given) | 70.5 µM |  | > 100 µM |  | 89 µM | > 100 µM | > 100 µM | > 100 µM | 75.2 µM | > 100 µM |  |  |  |  |  |  |  |  |
| CCCCCCCC(CC(=O)O)OC(=O)CC(CCCCCCC)OC1OC(C)C(O)C(O)C1OC1OC(C)C(O)C(O)C1O (stereo not given) | > 100 µM |  |  |  | > 100 µM | > 100 µM | > 100 µM | > 100 µM | > 100 µM | > 100 µM |  |  |  |  |  |  |  |  |
| COc1cc([C@@H]2c3cc4c(cc3[C@@H](Nc3ccc(Cl)cc3C(=O)c3ccccc3Cl)[C@H]3COC(=O)[C@H]23)OCO4)cc(OC)c1OC | > 37.7 µM |  | > 100 µM | > 75.3 µM | > 100 µM | > 100 µM | > 100 µM | > 100 µM |  | > 100 µM |  |  |  |  |  |  |  |  |
| COc1ccc(C[C@H]2COC(=O)[C@@H]2Cc2cc(OC)c(OC)c(OC)c2)cc1OC | > 100 µM | > 100 µM | > 100 µM | > 100 µM | > 100 µM | > 100 µM | > 100 µM | > 100 µM |  | > 100 µM |  |  |  |  |  |  |  |  |
| Cc1cc(S(=O)(=O)NC(=NCC(=O)NN)NN)c(S)cc1Cl | > 10 µM | > 10 µM | > 10 µM | > 10 µM | > 10 µM | > 10 µM | > 10 µM | > 10 µM | > 10 µM |  |  |  |  |  |  |  |  |  |
| COCCCN1C(=O)C2c3[nH]c4ccccc4c3C3CCC(C(C)(C)C)CC3C2C1=O (stereo not given) | > 10 µM | 54.5 µM | > 100 µM | 51.3 µM |  |  | 79.4 µM | > 100 µM |  | > 100 µM |  |  |  |  |  |  |  |  |
| C=CC1(CCC(Br)C(C)(C)Cl)CO1 (stereo not given) | > 10 µM |  |  |  |  | > 10 µM |  | > 10 µM | > 10 µM | > 10 µM |  |  |  |  |  |  |  |  |
| Cc1cnc2[nH]c(-c3ccccc3)cc(=O)c2c1 | 0.0447 µM | 0.226 µM | > 100 µM |  | > 100 µM | > 100 µM |  | > 82.2 µM |  | 68 µM |  |  |  |  |  |  |  |  |
| CN1C/C(=C\c2ccccc2[N+](=O)[O-])C(=O)/C(=C/c2ccccc2[N+](=O)[O-])C1 | > 28.1 µM and 29.4 µM | 0.632 µM and 0.41 µM | 2.27 µM and 0.94 µM | 1.13 µM and 0.485 µM |  | 10.3 µM and 3.87 µM | 0.481 µM and 3.5 µM | 13.1 µM and 11 µM | 4.45 µM and 4.72 µM | 1.28 µM and 1.12 µM |  | 0.708 µM and 0.298 µM | 0.477 µM and 0.191 µM | 3.27 µM and 1.05 µM |  | 0.239 | 0.265 µM and 1.46 µM | 2.94 µM and 0.554 µM |
| C=CCOn1c(C=C)nc2c(C)cccc21 |  | 5.1 µM | 24 µM |  | 12.2 µM | 23.3 µM | 12.1 µM | 29.2 µM | 17.9 µM | 6.03 µM |  |  |  |  |  |  |  |  |
